# US20080103199A1, “TREATMENT OF PERVASIVE DEVELOPMENTAL DISORDERS” (priority 2006, published 2008)
# Assays:
# submissive rats = experiment: Reduction of Submissive Behavior Model (RSBM) of depression, dominant-submissive rat food competition test; assay type: in vivo, Sprague-Dawley rats; settings: 5 weeks, submissive rat treated
# Excerpt: (§1) In this study, the effects of COMPOUND #7 on dominant or submissive behavior in pairs of rats competing for food are examined. It has been shown that anti-manic drugs, including anticonvulsants, decrease dominance and antidepressant drugs reduce submissiveness. This model uses dominant behavior as a model of mania and submissive behavior as a model of depression. The dominance and submissiveness is defined in a competition test and measured as the relative success of two food-restricted rats to gain access to a feeder. Rats are randomly paired and placed in an apparatus allowing them to compete for a food reward. The dominant-submissive relationship develops over a 2-week period. The submissive or dominant animals in pairs selected after 2 weeks of training were treated orally […] (b.i.d.) with COMPOUND #7 at 3 or 30 mg/kg for 5 weeks. The partner of the drug-treated animal was treated with vehicle.
# The objective of this study was to determine if COMPOUND #7 is active in the Reduction of Submissive Behavior Model (RSBM) of depression and the Reduction of Dominant Behavior Model (RDBM) of mania. Measurements were made at two doses (3 and 30 mg/kg) after oral twice a day (b.i.d.) administration. The effect of the drug in the RSBM was compared to the effect of fluoxetine (10 mg/kg) and vehicle (0.5% methylcellulose). The effect of the drug in the RDBM was compared with the effect of lithium (100 mg/kg) and vehicle (0.5% methylcellulose). The endpoints measured were the development of a significant reduction of submissive or dominant behavior and its time of onset.
# The DSR developed by two rats competing for food uses the apparatus in FIG. 1.
# In the experiments described in this report Sprague-Dawley rats weighing 160 to 180 g were used. Testing for the development of a DSR between paired rats begins with the random assignment of rats into pairs. […]
# (§2) The test involves placing each member of a pair in opposite chambers of the testing apparatus. […] The test is conducted once a day over a 5-minute period and the time spent on the feeder by each animal is recorded. […]
# dominant rats = experiment: Reduction of Dominant Behavior Model (RDBM) of mania, dominant-submissive rat food competition test; assay type: in vivo, Sprague-Dawley rats; settings: 5 weeks, dominant rat treated
# Excerpt: as §1, with “The partner of the drug-treated animal was treated with vehicle.” left out
# The objective of this study was to determine if COMPOUND #7 is active in the Reduction of Submissive Behavior Model (RSBM) of depression and the Reduction of Dominant Behavior Model (RDBM) of mania. […] The endpoints measured were the development of a significant reduction of submissive or dominant behavior and its time of onset. […]
# as §2
# [1] = tested on: Crl:CD-1(ICR)BR albino mice; experiment: Isolation-induced aggression model in pairs of mice; assay type: in vivo
# Method: The effects of test compound on the aggressive behavior of Crl:CD-1(ICR)BR albino mice were evaluated using the paradigm of isolation-induced aggression.
# Male Crl:CD-1(ICR)BR albino mice, fasted overnight, were individually housed for 5 weeks in plastic cages on wood-chip bedding. Subsequently, they were paired for 1 minute daily for several days by placing one individually housed mouse (intruder) into the resident cage of another individually housed mouse (resident). The 1-minute pairing of intruder and resident mouse elicits aggressive behavior. Pairs of mice showing consistent aggressive behavior when paired for 1 minute, during several days were selected as subjects for drug testing.
# Test compound (10 to 40 mg/kg p.o.) or the vehicle (methocel; aqueous 0.5%, w/v, hydroxypropyl methylcellulose solution) was administered (10 mL/kg) to the resident and intruder mouse. One and 4 hours after dosing, the mice were paired and the onset of fighting was recorded. […] The duration of fighting during a 1-minute test period was recorded. Mice were re-used in this procedure after several days to a week to allow metabolism and elimination of test compounds. The mice weighed 32 to 49 g at the time of testing and were fasted overnight before dosing. Mice were euthanized with CO2 if they were sick or injured.
# Results were expressed as the median onset of fighting and median duration of fighting in vehicle and drug-treated groups. The statistical significance of an increase in the median onset or a reduction in the median duration of fighting in pairs of mice given test compound or its vehicle 1 and 4 hours after administration was determined using the nonparametric Wilcoxon test (p<0.05, 1-tailed).
smiles,measurement,setting,value
NC(=O)OC[C@@H](O)c1ccccc1Cl [COMPOUND #7],"Effect on submissive rat behavior (competitiveness, time spent at feeder)",submissive rats; 3 mg/kg b.i.d. p.o.,did not have any effect
same,"Effect on submissive rat behavior (competitiveness, time spent at feeder)","submissive rats; 30 mg/kg b.i.d. p.o., vs vehicle-treated",significantly increased competitiveness
same,Effect on performance (competitiveness) of dominant rats,dominant rats; 3 mg/kg b.i.d. p.o.,decreased the performance
same,Effect on performance (competitiveness) of dominant rats,dominant rats; 30 mg/kg b.i.d. p.o.,significantly increased the competitiveness
same,Onset for initiation of fighting compared to vehicle-treated group,"[1]; 20 mg/kg p.o., 4 hours after administration",statistically significantly shorter
same,Effect on isolation-induced aggressive behavior,"[1]; 40 mg/kg p.o., 1 hour after administration, vs vehicle (p<0.05)",inhibited isolation-induced aggressive behavior
same,Effect on median duration of fighting compared to vehicle-treated groups,"[1]; any dose group (10 to 40 mg/kg p.o.), 4 hours after administration",not affected
